Read-outs that look alike come from different tables or passages of the source.
Tested on: GRMD plasma proteins
Assay type: in vivo, dog
[1] = EDG-5506 treatment to GRMD baseline, Decreased in GRMD

O=c1ccc(-c2cnc(OCC(F)(F)F)nc2)nn1Cc1cncc(F)c1 [EDG-5506]
Change from GRMD Baseline (fraction) (3-hydroxy-3-methylglutaryl-coenzyme A reductase (HMGCR), EDG-5506 treatment to GRMD baseline): 0.149 fraction | Change from GRMD Baseline (fraction) (3-hydroxy-3-methylglutaryl-coenzyme A reductase (HMGCR), Post-Treatment to GRMD baseline): -0.0053 fraction | Change from GRMD Baseline (fraction) (Annexin A5 (ANXA5), EDG-5506 treatment to GRMD baseline): 0.0604 fraction | Change from GRMD Baseline (fraction) (Annexin A5 (ANXA5), Post-Treatment to GRMD baseline): -0.0309 fraction | Change from GRMD Baseline (fraction) (Apolipoprotein M (APOM), EDG-5506 treatment to GRMD baseline): 0.1027 fraction | Change from GRMD Baseline (fraction) (Apolipoprotein M (APOM), Post-Treatment to GRMD baseline): -0.1149 fraction | Change from GRMD Baseline (fraction) (Bactericidal permeability-increasing protein (BPI), EDG-5506 treatment to GRMD baseline): 0.0745 fraction | Change from GRMD Baseline (fraction) (Bactericidal permeability-increasing protein (BPI), Post-Treatment to GRMD baseline): 0.1503 fraction | Change from GRMD Baseline (fraction) (Basigin (BSG), EDG-5506 treatment to GRMD baseline): 0.1541 fraction | Change from GRMD Baseline (fraction) (Basigin (BSG), Post-Treatment to GRMD baseline): -0.07 fraction | Change from GRMD Baseline (fraction) (Brain-derived neurotrophic factor (BDNF), EDG-5506 treatment to GRMD baseline): 0.0859 fraction | Change from GRMD Baseline (fraction) (Brain-derived neurotrophic factor (BDNF), Post-Treatment to GRMD baseline): -0.07 fraction | Change from GRMD Baseline (fraction) (Calcium/calmodulin-dependent 3',5'-cyclic nucleotide phosphodiesterase 1A (PDE1A), EDG-5506 treatment to GRMD baseline): 0.0363 fraction | Change from GRMD Baseline (fraction) (Calcium/calmodulin-dependent 3',5'-cyclic nucleotide phosphodiesterase 1A (PDE1A), Post-Treatment to GRMD baseline): -0.0044 fraction | Change from GRMD Baseline (fraction) (Carbohydrate sulfotransferase 15 (CHST15), EDG-5506 treatment to GRMD baseline): 0.0872 fraction | Change from GRMD Baseline (fraction) (Carbohydrate sulfotransferase 15 (CHST15), Post-Treatment to GRMD baseline): -0.1346 fraction | Change from GRMD Baseline (fraction) (Carbonic anhydrase 7 (CA7), EDG-5506 treatment to GRMD baseline): 0.1779 fraction | Change from GRMD Baseline (fraction) (Carbonic anhydrase 7 (CA7), Post-Treatment to GRMD baseline): 0.1249 fraction | Change from GRMD Baseline (fraction) (Cathepsin G (CTSG), EDG-5506 treatment to GRMD baseline): 0.0969 fraction | Change from GRMD Baseline (fraction) (Cathepsin G (CTSG), Post-Treatment to GRMD baseline): 0.1704 fraction | Change from GRMD Baseline (fraction) (Cathepsin H (CTSH), EDG-5506 treatment to GRMD baseline): 0.1349 fraction | Change from GRMD Baseline (fraction) (Cathepsin H (CTSH), Post-Treatment to GRMD baseline): -0.0348 fraction | Change from GRMD Baseline (fraction) (Ciliary neurotrophic factor (CNTF), EDG-5506 treatment to GRMD baseline): 0.2366 fraction | Change from GRMD Baseline (fraction) (Ciliary neurotrophic factor (CNTF), Post-Treatment to GRMD baseline): 0.313 fraction | Change from GRMD Baseline (fraction) (Collectin-11 (COLEC11), EDG-5506 treatment to GRMD baseline): -0.1017 fraction | Change from GRMD Baseline (fraction) (Collectin-11 (COLEC11), Post-Treatment to GRMD baseline): -0.0756 fraction | Change from GRMD Baseline (fraction) (Complement component C7 (C7), EDG-5506 treatment to GRMD baseline): 0.118 fraction | Change from GRMD Baseline (fraction) (Complement component C7 (C7), Post-Treatment to GRMD baseline): 0.1005 fraction | Change from GRMD Baseline (fraction) (Contactin-2 (CNTN2), EDG-5506 treatment to GRMD baseline): 0.1036 fraction | Change from GRMD Baseline (fraction) (Contactin-2 (CNTN2), Post-Treatment to GRMD baseline): -0.068 fraction | Change from GRMD Baseline (fraction) (Cytotoxic T-lymphocyte protein 4 (CTLA4), EDG-5506 treatment to GRMD baseline): 0.1272 fraction | Change from GRMD Baseline (fraction) (Cytotoxic T-lymphocyte protein 4 (CTLA4), Post-Treatment to GRMD baseline): 0.041 fraction | Change from GRMD Baseline (fraction) (Delta-like protein 4 (DLL4), EDG-5506 treatment to GRMD baseline): 0.0825 fraction | Change from GRMD Baseline (fraction) (Delta-like protein 4 (DLL4), Post-Treatment to GRMD baseline): -0.0212 fraction | Change from GRMD Baseline (fraction) (Dickkopf-related protein 3 (DKK3), EDG-5506 treatment to GRMD baseline): 0.0897 fraction | Change from GRMD Baseline (fraction) (Dickkopf-related protein 3 (DKK3), Post-Treatment to GRMD baseline): -0.0042 fraction | 3-hydroxyisobutyrate dehydrogenase, mitochondrial (HIBADH): Change from GRMD Baseline (fraction) [1]: 0.1537 fraction | 14-3-3 protein beta/alpha (YWHAB): Change from GRMD Baseline (fraction) [1]: -0.0886 fraction | 14-3-3 protein sigma (SFN): Change from GRMD Baseline (fraction) [1]: 0.3172 fraction | 72 kDa type IV collagenase (MMP2): Change from GRMD Baseline (fraction) [1]: 0.1734 fraction | Adrenomedullin (ADM): Change from GRMD Baseline (fraction) [1]: -0.0855 fraction | Aggrecan core protein (ACAN): Change from GRMD Baseline (fraction) [1]: 0.167 fraction | Alpha-synuclein (SNCA): Change from GRMD Baseline (fraction) [1]: 0.0584 fraction | Apolipoprotein B (APOB): Change from GRMD Baseline (fraction) [1]: 0.074 fraction | Appetite-regulating hormone (GHRL): Change from GRMD Baseline (fraction) [1]: 0.1979 fraction | Atrial natriuretic factor (NPPA): Change from GRMD Baseline (fraction) [1]: 0.1398 fraction | BDNF/NT-3 growth factors receptor (NTRK2): Change from GRMD Baseline (fraction) [1]: 0.1937 fraction | BH3-interacting domain death agonist (BID): Change from GRMD Baseline (fraction) [1]: 0.1126 fraction | Bcl-2-related protein A1 (BCL2A1): Change from GRMD Baseline (fraction) [1]: -0.0911 fraction | Bone morphogenetic protein 6 (BMP6): Change from GRMD Baseline (fraction) [1]: 0.2555 fraction | Bone morphogenetic protein 10 (BMP10): Change from GRMD Baseline (fraction) [1]: 0.1398 fraction | C-X-C motif chemokine 10 (CXCL10): Change from GRMD Baseline (fraction) [1]: 0.1922 fraction | C-type mannose receptor 2 (MRC2): Change from GRMD Baseline (fraction) [1]: 0.1728 fraction | CD166 antigen (ALCAM): Change from GRMD Baseline (fraction) [1]: 0.2333 fraction | Cadherin-5 (CDH5): Change from GRMD Baseline (fraction) [1]: 0.1109 fraction | Carboxypeptidase E (CPE): Change from GRMD Baseline (fraction) [1]: 0.0406 fraction | Cell adhesion molecule 1 (CADM1): Change from GRMD Baseline (fraction) [1]: 0.0424 fraction | Chromogranin-A (CHGA): Change from GRMD Baseline (fraction) [1]: 0.2322 fraction | Ciliary neurotrophic factor receptor subunit alpha (CNTFR): Change from GRMD Baseline (fraction) [1]: 0.1045 fraction | Ck-beta-8-1 (CCL23): Change from GRMD Baseline (fraction) [1]: 0.0708 fraction | Coiled-coil domain-containing protein 80 (CCDC80): Change from GRMD Baseline (fraction) [1]: -0.0672 fraction | Collagen alpha-1(VIII) chain (COL8A1): Change from GRMD Baseline (fraction) [1]: 0.2128 fraction | Collagenase 3 (MMP13): Change from GRMD Baseline (fraction) [1]: -0.0939 fraction | Collectin-12 (COLEC12): Change from GRMD Baseline (fraction) [1]: 0.2006 fraction | Complement component C1q receptor (CD93): Change from GRMD Baseline (fraction) [1]: 0.1785 fraction | Complement decay-accelerating factor (CD55): Change from GRMD Baseline (fraction) [1]: -0.0957 fraction | Contactin-1 (CNTN1): Change from GRMD Baseline (fraction) [1]: 0.0923 fraction | Corticotropin (POMC): Change from GRMD Baseline (fraction) [1]: -0.096 fraction | Cytotoxic and regulatory T-cell molecule (CRTAM): Change from GRMD Baseline (fraction) [1]: -0.015 fraction | Dickkopf-related protein 1 (DKK1): Change from GRMD Baseline (fraction) [1]: 0.2889 fraction | Dickkopf-related protein 4 (DKK4): Change from GRMD Baseline (fraction) [1]: 0.1406 fraction | E3 ubiquitin-protein ligase ZNRF3 (ZNRF3): Change from GRMD Baseline (fraction) [1]: -0.0555 fraction | Ephrin type-A receptor 5 (EPHA5): Change from GRMD Baseline (fraction) [1]: 0.0759 fraction | Ephrin-A2 (EFNA2): Change from GRMD Baseline (fraction) [1]: 0.0899 fraction | Ephrin-A5 (EFNA5): Change from GRMD Baseline (fraction) [1]: 0.0839 fraction | Epidermal growth factor receptor (EGFR): Change from GRMD Baseline (fraction) [1]: 0.2223 fraction | Estradiol 17-beta-dehydrogenase 1 (HSD17B1): Change from GRMD Baseline (fraction) [1]: 0.1223 fraction | Fatty acid-binding protein, epidermal (FABP5): Change from GRMD Baseline (fraction) [1]: 0.0517 fraction | Fc receptor-like protein 3 (FCRL3): Change from GRMD Baseline (fraction) [1]: -0.0177 fraction | GDNF family receptor alpha-2 (GFRA2): Change from GRMD Baseline (fraction) [1]: 0.1299 fraction | Galectin-8 (LGALS8): Change from GRMD Baseline (fraction) [1]: 0.0779 fraction | Galectin-9 (LGALS9): Change from GRMD Baseline (fraction) [1]: -0.04 fraction | Gamma-enolase (ENO2): Change from GRMD Baseline (fraction) [1]: 0.1938 fraction | Gastrin-releasing peptide (GRP): Change from GRMD Baseline (fraction) [1]: 0.0715 fraction | Glutamate carboxypeptidase 2 (FOLH1): Change from GRMD Baseline (fraction) [1]: 0.301 fraction | Glypican-2 (GPC2): Change from GRMD Baseline (fraction) [1]: 0.2818 fraction | Gremlin-1 (GREM1): Change from GRMD Baseline (fraction) [1]: 0.117 fraction | Growth/differentiation factor 8 (MSTN): Change from GRMD Baseline (fraction) [1]: 0.0197 fraction | Growth/differentiation factor 11/8 (GDF11 MSTN): Change from GRMD Baseline (fraction) [1]: 0.039 fraction | Hemoglobin (HBA1 HBB): Change from GRMD Baseline (fraction) [1]: -0.194 fraction | Heparin cofactor 2 (SERPIND1): Change from GRMD Baseline (fraction) [1]: 0.095 fraction | Hepatitis A virus cellular receptor 2 (HAVCR2): Change from GRMD Baseline (fraction) [1]: -0.0356 fraction | High affinity immunoglobulin gamma Fc receptor I (FCGR1A): Change from GRMD Baseline (fraction) [1]: 0.1553 fraction | Histone-lysine N-methyltransferase EHMT2 (EHMT2): Change from GRMD Baseline (fraction) [1]: 0.3323 fraction | Hyaluronan and proteoglycan link protein 1 (HAPLN1): Change from GRMD Baseline (fraction) [1]: 0.0551 fraction | Insulin-like growth factor 1 receptor (IGF1R): Change from GRMD Baseline (fraction) [1]: 0.1691 fraction | Integrin alpha-V: beta-5 complex (ITGAV ITGB5): Change from GRMD Baseline (fraction) [1]: -0.051 fraction | Interleukin-4 receptor subunit alpha (IL4R): Change from GRMD Baseline (fraction) [1]: 0.1823 fraction | Interleukin-18-binding protein (IL18BP): Change from GRMD Baseline (fraction) [1]: 0.0143 fraction | Interstitial collagenase (MMP1): Change from GRMD Baseline (fraction) [1]: 0.0861 fraction | Leucine-rich repeat transmembrane neuronal protein 3 (LRRTM3): Change from GRMD Baseline (fraction) [1]: 0.2512 fraction | Limbic system-associated membrane protein (LSAMP): Change from GRMD Baseline (fraction) [1]: 0.1355 fraction | Lymphocyte activation gene 3 protein (LAG3): Change from GRMD Baseline (fraction) [1]: 0.164 fraction | Lysosome membrane protein 2 (SCARB2): Change from GRMD Baseline (fraction) [1]: 0.1336 fraction | MHC class I polypeptide-related sequence B (MICB): Change from GRMD Baseline (fraction) [1]: 0.2058 fraction | Matrilin-2 (MATN2): Change from GRMD Baseline (fraction) [1]: -0.0022 fraction | Melanoma-derived growth regulatory protein (MIA): Change from GRMD Baseline (fraction) [1]: 0.1875 fraction | Moesin (MSN): Change from GRMD Baseline (fraction) [1]: -0.082 fraction | Muellerian-inhibiting factor (AMH): Change from GRMD Baseline (fraction) [1]: 0.0498 fraction | NKG2D ligand 1 (ULBP1): Change from GRMD Baseline (fraction) [1]: -0.0534 fraction | NT-3 growth factor receptor (NTRK3): Change from GRMD Baseline (fraction) [1]: 0.1168 fraction | Netrin receptor UNC5C (UNC5C): Change from GRMD Baseline (fraction) [1]: 0.03 fraction | Neurogenic locus notch homolog protein 2 (NOTCH2): Change from GRMD Baseline (fraction) [1]: 0.2188 fraction | Neurogenic locus notch homolog protein 3 (NOTCH3): Change from GRMD Baseline (fraction) [1]: 0.0936 fraction | Nuclear receptor subfamily 1 group D member 1 (NR1D1): Change from GRMD Baseline (fraction) [1]: 0.048 fraction | Phospholipase A2 (PLA2G1B): Change from GRMD Baseline (fraction) [1]: 0.0754 fraction | Placenta growth factor (PGF): Change from GRMD Baseline (fraction) [1]: -0.066 fraction | Plasminogen (PLG): Change from GRMD Baseline (fraction) [1]: 0.2052 fraction | PolyUbiquitin K63-linked (UBC): Change from GRMD Baseline (fraction) [1]: 0.2167 fraction
